# Target: T1, Neprilysin (Rattus norvegicus, UniProt P07861)
# T1 sequence (P07861 whole entry): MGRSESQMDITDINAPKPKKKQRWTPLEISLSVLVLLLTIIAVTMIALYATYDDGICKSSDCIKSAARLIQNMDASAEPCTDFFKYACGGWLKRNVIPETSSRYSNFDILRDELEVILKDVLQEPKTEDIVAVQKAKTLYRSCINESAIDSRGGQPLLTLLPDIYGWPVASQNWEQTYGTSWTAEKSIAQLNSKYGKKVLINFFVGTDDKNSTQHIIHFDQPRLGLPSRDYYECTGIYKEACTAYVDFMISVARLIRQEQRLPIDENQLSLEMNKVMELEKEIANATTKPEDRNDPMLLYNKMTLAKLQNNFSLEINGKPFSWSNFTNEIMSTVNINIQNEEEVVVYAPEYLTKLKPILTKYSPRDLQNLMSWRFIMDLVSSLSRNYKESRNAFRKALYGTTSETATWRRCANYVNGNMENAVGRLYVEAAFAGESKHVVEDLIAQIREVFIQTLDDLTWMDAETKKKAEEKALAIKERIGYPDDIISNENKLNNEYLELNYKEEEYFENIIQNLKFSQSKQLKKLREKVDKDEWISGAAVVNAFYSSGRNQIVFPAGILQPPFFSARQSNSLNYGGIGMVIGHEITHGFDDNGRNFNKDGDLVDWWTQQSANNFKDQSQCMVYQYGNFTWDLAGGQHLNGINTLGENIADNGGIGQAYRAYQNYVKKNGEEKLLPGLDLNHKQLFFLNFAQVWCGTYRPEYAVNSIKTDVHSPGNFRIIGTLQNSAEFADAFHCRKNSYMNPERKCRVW
# Experiment: In vitro inhibitory activity against neutral endopeptidase (NEP) from rat kidney
row,IC50 [µM],Structure (SMILES)
1,0.0059,O=C(O)CNC(=O)[C@H](Cc1ccc(-c2ccccc2)cc1)CC(COc1ccccc1)C(=O)O (stereo not given in full)

# Target: T1, Neprilysin
# Experiment: In vitro inhibition of neutral endopeptidase from rat kidney.
row,IC50 [µM],Structure (SMILES)
1,> 1,O=C(O)CNC(=O)[C@@H](C[C@H](COc1ccccc1)C(=O)O)Oc1ccc(-c2ccccc2)cc1
2,0.0023,O=C(O)CC[C@@H](Cc1ccc(-c2ccccc2)cc1)C(=O)NCC(=O)O
3,0.013,C[C@@H](NC(=O)[C@H](Cc1ccc(-c2ccccc2)cc1)CC(COc1ccccc1)C(=O)O)C(=O)O (stereo in doubt; form 1)
4,0.0059,O=C(O)CNC(=O)[C@H](Cc1ccc(-c2ccccc2)cc1)C[C@H](COc1ccccc1)C(=O)O
5,0.945,"COCCOCC(CC(Cc1ccccc1)C(=O)NCC(=O)O)C(=O)O (single isomer, unassigned; isomer B)"
6,0.02,CC(NC(=O)[C@H](Cc1ccc(-c2ccccc2)cc1)CC(COc1ccccc1)C(=O)O)C(=O)O (mixture of isomers)
7,0.366,CCCC[C@H](C[C@H](Cc1ccc(-n2cccn2)cc1)C(=O)NCC(=O)O)C(=O)O
8,0.101,CSCCC(NC(=O)[C@H](Cc1ccc(-c2ccccc2)cc1)CC(COc1ccccc1)C(=O)O)C(=O)O (mixture of isomers)
9,0.0032,"O=C(O)CNC(=O)[C@H](Cc1ccc(-c2ccccc2)cc1)CC(COc1ccccc1)C(=O)O (single isomer, unassigned; isomer A)"
10,> 1,CC(CC(Cc1ncc(-c2ccccc2)cn1)C(=O)NCC(=O)O)C(=O)O (stereo not given)
11,> 1,O=C(O)C(COc1ccccc1)C[C@@H](Cc1ccc(-c2ccccc2)cc1)C(=O)N1CCCC1C(=O)O (stereo in doubt)
12,0.407,"O=C(O)CNC(=O)C(Cc1ccccc1)CC(COc1ccccc1)C(=O)O (single isomer, unassigned; isomer B)"
13,> 1,"COCCOCC(CC(Cc1ccccc1)C(=O)NCC(=O)O)C(=O)O (single isomer, unassigned; isomer A)"
14,> 1,"O=C(O)CNC(=O)C(Cc1ccccc1)CC(COc1ccccc1)C(=O)O (single isomer, unassigned; isomer A)"
15,0.0028,CC(NC(=O)[C@H](Cc1ccc(-c2ccccc2)cc1)CC(COc1ccccc1)C(=O)O)C(=O)O (stereo in doubt)
16,0.0032,O=C(O)CNC(=O)[C@H](Cc1ccc(-c2ccccc2)cc1)C[C@@H](COc1ccccc1)C(=O)O
17,0.0087,C[C@@H](NC(=O)[C@H](Cc1ccc(-c2ccccc2)cc1)CC(COc1ccccc1)C(=O)O)C(=O)O (stereo in doubt; form 2)
18,> 1,"O=C(O)C(COc1ccccc1)C[C@@H](Cc1ccc(-c2ccccc2)cc1)C(=O)N1CCCC1C(=O)O (single isomer, unassigned; isomer B)"
19,> 1,CCC/C=C(/C[C@@H](Cc1ccc(-n2cccn2)cc1)C(=O)NCC(=O)O)C(=O)O
